Test results taken from US6943183B2 (Pfizer Inc, priority 2000, dated 2005).

Target: T1, SF9 affinity purified rat FPT (Rattus norvegicus, UniProt Q02293+Q04631)
T1 construct: made in house; host or cells: Sf9 insect cells
Assay: PFT (FPT) inhibitory activity assay, radiolabeled farnesyl pyrophosphate and biotinyl peptide, streptavidin beads
Assay type: biochemical
Conditions: HEPES buffer pH 7.4, 30° C., 30 minutes; read-out: FTase IC50
Outline: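 Rat FPT expressed in SF9 cells was incubated 30 minutes at 30° C. with compound (in 10% DMSO), radiolabeled farnesyl pyrophosphate and biotinylated peptide. Buffer: HEPES pH 7.4, ZnCl2 20 μM, MgCl2 and DTT 5 mM each, 0.1% PEG 8000, 5 mM potassium phosphate (also run without phosphate). Product captured on streptavidin beads in magnesium acetate/H3PO4 stop buffer.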

| SMILES | IC50 [nM] |
| --- | --- |
| CN(C)CCNC(=O)c1ccccc1S(=O)(=O)Cc1c(O[C@H](Cn2ccnc2)c2ccccc2)ccc2c1CCCC2=O [Compound 180, N-[2-(Dimethylamino)ethyl]-2-{[(2-{[(1S)-2-(1H-imidazol-1-yl)-1-phenylethyl]oxy}-5-oxo-5,6,7,8-tetrahydro-1-naphthalenyl)methyl]sulfonyl}benzamide] | 6 |
| CN(C)CCNC(=O)c1ccc(S(=O)(=O)Cc2c(O[C@H](Cn3ccnc3)c3ccccc3)ccc3c2CCCC3=O)cc1 [Compound 181, N-[2-(Dimethylamino)ethyl]-4-{[(2-{[(1S)-2-(1H-imidazol-1-yl)-1-phenylethyl]oxy}-5-oxo-5,6,7,8-tetrahydro-1-naphthalenyl)methyl]sulfonyl}benzamide] | 20 |
| CN(C)CCNC(=O)c1cccc(S(=O)(=O)Cc2c(O[C@H](Cn3ccnc3)c3ccccc3)ccc3c2CCCC3=O)c1 [Compound 182, N-[2-(Dimethylamino)ethyl]-3-{[(2-{[(1S)-2-(1H-imidazol-1-yl)-1-phenylethyl]oxy}-5-oxo-5,6,7,8-tetrahydro-1-naphthalenyl)methyl]sulfonyl}benzamide] | 10 |
| CNC(=O)c1cccc(S(=O)(=O)Cc2c(O[C@H](Cn3ccnc3)c3ccccc3)ccc3c2CCCC3=O)c1 [Compound 190, 3-{[(2-{[(1S)-2-(1H-imidazol-1-yl)-1-phenylethyl]oxy}-5-oxo-5,6,7,8-tetrahydro-1-naphthalenyl)methyl]sulfonyl}-N-methylbenzamide] | 8 |
| CNC(=O)c1ccccc1SCc1c(O[C@H](Cn2ccnc2)c2ccccc2)ccc2c1CCCC2=O [Compound 193, 2-{[(2-{[(1S)-2-(1H-Imidazol-1-yl)-1-phenylethyl]oxy}-5-oxo-5,6,7,8-tetrahydro-1-naphthalenyl)methyl]sulfanyl}-N-methylbenzamide] | 5 |
| C[C@@H](O)CNC(=O)c1ccccc1SCc1c(O[C@H](Cn2ccnc2)c2ccccc2)ccc2c1CCCC2=O [Compound 194, N-[(2R)-2-Hydroxypropyl]-2-{[(2-{[(1S)-2-(1H-imidazol-1-yl)-1-phenylethyl]oxy}-5-oxo-5,6,7,8-tetrahydro-1-naphthalenyl)methyl]sulfanyl}benzamide] | 0.2 |
| C[C@@H](O)CNC(=O)c1ccc(SCc2c(O[C@H](Cn3ccnc3)c3ccccc3)ccc3c2CCCC3=O)cc1 [Compound 195, N-[(2R)-2-Hydroxypropyl]-4-{[(2-{[(1S)-2-(1H-imidazol-1-yl)-1-phenylethyl]oxy}-5-oxo-5,6,7,8-tetrahydro-1-naphthalenyl)methyl]sulfanyl}benzamide] | 0.2 |
| C[C@H](O)CNC(=O)c1ccc(SCc2c(O[C@H](Cn3ccnc3)c3ccccc3)ccc3c2CCCC3=O)cc1 [Compound 196, N-[(2S)-2-Hydroxypropyl]-4-{[(2-{[(1S)-2-(1H-imidazol-1-yl)-1-phenylethyl]oxy}-5-oxo-5,6,7,8-tetrahydro-1-naphthalenyl)methyl]sulfanyl}benzamide] | 0.2 |
| C[C@H](O)CNC(=O)c1cccc(SCc2c(O[C@H](Cn3ccnc3)c3ccccc3)ccc3c2CCCC3=O)c1 [Compound 197, N-[(2S)-2-Hydroxypropyl]-3-{[(2-{[(1S)-2-(1H-imidazol-1-yl)-1-phenylethyl]oxy}-5-oxo-5,6,7,8-tetrahydro-1-naphthalenyl)methyl]sulfanyl}benzamide] | 0.2 |
| C[C@H](O)CNC(=O)c1ccc(S(=O)(=O)Cc2c(O[C@H](Cn3ccnc3)c3ccccc3)ccc3c2CCCC3=O)cc1 [Compound 199, N-[(2S)-2-Hydroxypropyl]-4-{[(2-{[(1S)-2-(1H-imidazol-1-yl)-1-phenylethyl]oxy}-5-oxo-5,6,7,8-tetrahydro-1-naphthalenyl)methyl]sulfonyl}benzamide] | 0.4 |
| C[C@H](O)CNC(=O)c1cccc(S(=O)(=O)Cc2c(O[C@H](Cn3ccnc3)c3ccccc3)ccc3c2CCCC3=O)c1 [Compound 200, N-[(2S)-2-Hydroxypropyl]-3-{[(2-{[(1S)-2-(1H-imidazol-1-yl)-1-phenylethyl]oxy}-5-oxo-5,6,7,8-tetrahydro-1-naphthalenyl)methyl]sulfonyl}benzamide] | 0.24 |
| C[C@@H](O)CNC(=O)c1ccccc1S(=O)(=O)Cc1c(O[C@H](Cn2ccnc2)c2ccccc2)ccc2c1CCCC2=O [Compound 202, N-[(2R)-2-Hydroxypropyl]-2-{[(2-{[(1S)-2-(1H-imidazol-1-yl)-1-phenylethyl]oxy}-5-oxo-5,6,7,8-tetrahydro-1-naphthalenyl)methyl]sulfonyl}benzamide] | 0.2 |
| C[C@@H](O)CNC(=O)c1ccc(S(=O)(=O)Cc2c(O[C@H](Cn3ccnc3)c3ccccc3)ccc3c2CCCC3=O)cc1 [Compound 203, N-[(2R)-2-Hydroxypropyl]-4-{[(2-{[(1S)-2-(1H-imidazol-1-yl)-1-phenylethyl]oxy}-5-oxo-5,6,7,8-tetrahydro-1-naphthalenyl)methyl]sulfonyl}benzamide] | 1.2 |
| C[C@@H](O)CNC(=O)c1cccc(S(=O)(=O)Cc2c(O[C@H](Cn3ccnc3)c3ccccc3)ccc3c2CCCC3=O)c1 [Compound 204, N-[(2R)-2-Hydroxypropyl]-3-{[(2-{[(1S)-2-(1H-imidazol-1-yl)-1-phenylethyl]oxy}-5-oxo-5,6,7,8-tetrahydro-1-naphthalenyl)methyl]sulfonyl}benzamide] | 0.65 |
| C=CCNC(=O)c1cccc(S(=O)(=O)Cc2c(O[C@H](Cn3ccnc3)c3ccccc3)ccc3c2CCCC3=O)c1 [Compound 205, N-Allyl-3-{[(2-{[(1S)-2-(1H-imidazol-1-yl)-1-phenylethyl]oxy}-5-oxo-5,6,7,8-tetrahydro-1-naphthalenyl)methyl]sulfonyl}benzamide] | 0.2 |

The remaining compounds from weak to strong by IC50, led by results:

| IC50 [nM] | SMILES |
| --- | --- |
| 10 | CNC(=O)c1ccc(S(=O)(=O)Cc2c(O[C@H](Cn3ccnc3)c3ccccc3)ccc3c2CCCC3=O)cc1 [Compound 189, 4-{[(2-{[(1S)-2-(1H-2-Imidazol-1-yl)-1-phenylethyl]oxy}-5-oxo-5,6,7,8-tetrahydro-1-naphthalenyl)methyl]sulfonyl}-N-methylbenzamide] |
| 7 | CCOC(=O)CCNC(=O)c1ccccc1S(=O)(=O)Cc1c(O[C@H](Cn2ccnc2)c2ccccc2)ccc2c1CCCC2=O [Compound 183, Ethyl 3-[(2-{[(2-{[(1S)-2-(1H-Imidazol-1-yl)-1-phenylethyl]oxy}-5-oxo-5,6,7,8-tetrahydro-1-naphthalenyl)methyl]sulfonyl}benzoyl)amino]propanoate] |
| 7 | CCOC(=O)CCNC(=O)c1ccccc1SCc1c(O[C@H](Cn2ccnc2)c2ccccc2)ccc2c1CCCC2=O [Compound 187, Ethyl 3-[(2-{[(2-{[(1S)-2-(1H-Imidazol-1-yl)-1-phenylethyl]oxy}-5-oxo-5,6,7,8-tetrahydro-1-naphthalenyl)methyl]sulfanyl}benzoyl)amino]propanoate] |
| 7 | CNC(=O)c1cccc(SCc2c(O[C@H](Cn3ccnc3)c3ccccc3)ccc3c2CCCC3=O)c1 [Compound 192, 3-{[(2-{[(1S)-2-(1H-Imidazol-1-yl)-1-phenylethyl]oxy}-5-oxo-5,6,7,8-tetrahydro-1-naphthalenyl)methyl]sulfanyl}-N-methylbenzamide] |
| 4 | CCOC(=O)C(C)NC(=O)c1ccccc1S(=O)(=O)Cc1c(O[C@H](Cn2ccnc2)c2ccccc2)ccc2c1CCCC2=O (stereo partly drawn) [Compound 185, Ethyl 2-[(2-{[(2-{[(1S)-2-(1H-Imidazol-1-yl)-1-phenylethyl]oxy}-5-oxo-5,6,7,8-tetrahydro-1-naphthalenyl)methyl]sulfonyl}benzoyl)amino]propanoate] |
| 4 | CCOC(=O)C(C)NC(=O)c1ccccc1SCc1c(O[C@H](Cn2ccnc2)c2ccccc2)ccc2c1CCCC2=O (stereo partly drawn) [Compound 186, Ethyl 2-[(2-{[(2-{[(1S)-2-(1H-Imidazol-1-yl)-1-phenylethyl]oxy}-5-oxo-5,6,7,8-tetrahydro-1-naphthalenyl)methyl]sulfanyl}benzoyl)amino]propanoate] |
| 2 | CNC(=O)c1ccc(SCc2c(O[C@H](Cn3ccnc3)c3ccccc3)ccc3c2CCCC3=O)cc1 [Compound 191, 4-{[(2-{[(1S)-2-(1H-Imidazol-1-yl)-1-phenylethyl]oxy}-5-oxo-5,6,7,8-tetrahydro-1-naphthalenyl)methyl]sulfanyl}-N-methylbenzamide] |
| 0.8 | C=CCNC(=O)c1ccc(S(=O)(=O)Cc2c(O[C@H](Cn3ccnc3)c3ccccc3)ccc3c2CCCC3=O)cc1 [Compound 206, N-Allyl-4-{[(2-{[(1S)-2-(1H-imidazol-1-yl)-1-phenylethyl]oxy}-5-oxo-5,6,7,8-tetrahydro-1-naphthalenyl)methyl]sulfonyl}benzamide] |
| 0.2 | C[C@H](O)CNC(=O)c1ccccc1SCc1c(O[C@H](Cn2ccnc2)c2ccccc2)ccc2c1CCCC2=O [Compound 198, N-[(2S)-2-Hydroxypropyl]-2-{[(2-{[(1S)-2-(1H-imidazol-1-yl)-1-phenylethyl]oxy}-5-oxo-5,6,7,8-tetrahydro-1-naphthalenyl)methyl]sulfanyl}benzamide] |
| 0.2 | C[C@H](O)CNC(=O)c1ccccc1S(=O)(=O)Cc1c(O[C@H](Cn2ccnc2)c2ccccc2)ccc2c1CCCC2=O [Compound 201, N-[(2S)-2-Hydroxypropyl]-2-{[(2-{[(1S)-2-(1H-imidazol-1-yl)-1-phenylethyl]oxy}-5-oxo-5,6,7,8-tetrahydro-1-naphthalenyl)methyl]sulfonyl}benzamide] |
| 0.2 | C=CCNC(=O)c1ccccc1S(=O)(=O)Cc1c(O[C@H](Cn2ccnc2)c2ccccc2)ccc2c1CCCC2=O [Compound 207, N-Allyl-2-{[(2-{[(1S)-2-(1H-imidazol-1-yl)-1-phenylethyl]oxy}-5-oxo-5,6,7,8-tetrahydro-1-naphthalenyl)methyl]sulfonyl}benzamide] |
| 0.2 | C=CCNC(=O)c1ccccc1SCc1c(O[C@H](Cn2ccnc2)c2ccccc2)ccc2c1CCCC2=O [Compound 208, N-Allyl-2-{[(2-{[(1S)-2-(1H-imidazol-1-yl)-1-phenylethyl]oxy}-5-oxo-5,6,7,8-tetrahydro-1-naphthalenyl)methyl]sulfanyl}benzamide] |
